# Measured values taken from patent publication US20230071840A1, “HETEROCYCLIC GLP-1 AGONISTS” (Gasherbrum Bio, Inc., priority 2020, published 2023).
# Target: GLP-1 Receptor (Homo sapiens, UniProt P43220)
# Assay: GLP-1R agonist cAMP stimulation assay (HEK293/GLP1R/CRE-LUC cells, cAMP dynamic 2 kit)
# Format: cell-based
# Conditions: HEK293/CRE-Luc cell line stably expressing the GLP-1 Receptor; 30 min incubation at 37° C.; read-out: GLP1R cAMP Stimulation DR: EC50
# Experimental: Activation of GLP-1 receptor is known to stimulate cyclic AMP (cAMP) production in cells which indicates primary coupling to the Gas subunit of the G protein heterotrimeric complex.
# To optimize functional activity directed toward Gas coupling, a HEK293/CRE-Luc cell line developed by HDB stably expressing the GLP-1 Receptor was used. […] Seal the plate and incubate at 37° C. with 5% CO2 for 30 min.
# After incubation the cAMP assay signal was generated using cAMP dynamic 2 Kit (Cisbio). 5 μL cAMP-d2 working solution was added to each well, followed with 5 μL Anti-cAMP antibody-cryptate working solution added to each well using ThermoFisher Multidrop Combi. Incubate at room temperature for 1 hour protected from light.
# % Activity=[…]×(mean RLU of test sample−mean RLU of vehicle control)/(mean RLU of MAX control−mean RLU of vehicle control))
# GLP-1 Receptor, sequence (P43220 24-463, species assumed): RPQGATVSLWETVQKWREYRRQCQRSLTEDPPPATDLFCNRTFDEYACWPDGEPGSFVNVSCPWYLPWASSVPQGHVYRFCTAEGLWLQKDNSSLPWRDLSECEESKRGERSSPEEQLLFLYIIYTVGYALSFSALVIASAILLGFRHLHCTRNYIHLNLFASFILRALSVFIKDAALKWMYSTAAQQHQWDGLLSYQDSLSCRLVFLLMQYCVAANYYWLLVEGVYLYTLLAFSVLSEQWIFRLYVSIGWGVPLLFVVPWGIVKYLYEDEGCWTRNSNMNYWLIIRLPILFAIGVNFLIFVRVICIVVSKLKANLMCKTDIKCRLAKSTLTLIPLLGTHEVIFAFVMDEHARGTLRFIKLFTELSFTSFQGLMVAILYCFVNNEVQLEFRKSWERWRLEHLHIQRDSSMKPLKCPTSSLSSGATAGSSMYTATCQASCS
row,Compound,EC50 [nM]
1,"O=C(O)c1ccc2nc(C[C@H]3CC[C@@H](Oc4cccc(Cc5ccc(Cl)cc5F)n4)CC3)n(C[C@@H]3CCO3)c2n1 [Compound 174a, 3-{[(2S)-oxetan-2-yl]methyl}-2-{[cis-4-({6-[(4-chloro-2-fluorophenyl)methyl]pyridin-2-yl}oxy)cyclohexyl]methyl}-3H-imidazo[4,5-b]pyridine-5-carboxylic acid]",29
2,"O=C(O)c1ccc2nc(CN3CCC(Cc4cccc(Oc5ccc(Cl)cc5F)n4)CC3)n(C[C@@H]3CCO3)c2n1 [Compound 121a, 2-[(4-{[6-(4-chloro-2-fluorophenoxy)pyridin-2-yl]methyl}piperidin-1-yl)methyl]-3-{[(2S)-oxetan-2-yl]methyl}-3H-imidazo[4,5-b]pyridine-5-carboxylic acid]",6.5
3,"O=C(O)c1ccc2nc(CN3CCC(Oc4cccc(Cc5ccc(Cl)cc5)c4Cl)CC3)n(C[C@@H]3CCO3)c2n1 [Compound 158a, 2-[(4-{2-chloro-3-[(4-chlorophenyl)methyl]phenoxy}piperidin-1-yl)methyl]-3-{[(2S)-oxetan-2-yl]methyl}-3H-imidazo[4,5-b]pyridine-5-carboxylic acid]",> 1000
4,"O=C(O)c1ccc2nc(CN3CCC(Oc4ccnc(Cc5ccc(Cl)cc5)n4)CC3)n(C[C@H]3CCOC3)c2n1 [Compound 196a, (R)-2-((4-((2-(4-chlorobenzyl)pyrimidin-4-yl)oxy)piperidin-1-yl)methyl)-3-((tetrahydrofuran-3-yl)methyl)-3H-imidazo[4,5-b]pyridine-5-carboxylic acid]",1.3
5,"O=C(O)c1ccc2nc(CN3CCC(Oc4cccc(Cc5ccc(C6CC6)cc5)n4)CC3)n(C[C@@H]3CCO3)c2n1 [Compound 146a, 2-{[4-({6-[(4-cyclopropylphenyl)methyl]pyridin-2-yl}oxy)piperidin-1-yl]methyl}-3-{[(2S)-oxetan-2-yl]methyl}-3H-imidazo[4,5-b]pyridine-5-carboxylic acid]",0.62
6,"N#CC1(Cn2c(C[C@H]3CC[C@H](Oc4ccnc(Cc5ccc(Cl)cc5)n4)CC3)nc3ccc(C(=O)O)nc32)CC1 [Compound 178a, 3-[(1-cyanocyclopropyl)methyl]-2-{[trans-4-({2-[(4-chlorophenyl)methyl]pyrimidin-4-yl}oxy)cyclohexyl]methyl}-3H-imidazo[4,5-b]pyridine-5-carboxylic acid]",0.1
7,"O=C(O)c1ccc2nc(CN3CC=C(c4cnc5ccc(Cc6ccc(Cl)cc6F)nn45)CC3)n(C[C@@H]3CCO3)c2n1 [Compound 192a, 2-[(4-{6-[(4-chloro-2-fluorophenyl)methyl]imidazo[1,2-b]pyridazin-3-yl}-1,2,3,6-tetrahydropyridin-1-yl)methyl]-3-{[(2S)-oxetan-2-yl]methyl}-3H-imidazo[4,5-b]pyridine-5-carboxylic acid]",130
8,"O=C(O)c1ccc2nc(CN3CCC(Oc4ccnc(Cc5ccc(Cl)cc5F)n4)CC3)n(C[C@@H]3CCO3)c2n1 [Compound 113a, 2-{[4-({2-[(4-chloro-2-fluorophenyl)methyl]pyrimidin-4-yl}oxy)piperidin-1-yl]methyl}-3-{[(2S)-oxetan-2-yl]methyl}-3H-imidazo[4,5-b]pyridine-5-carboxylic acid]",0.038
9,"O=C(O)c1ccc2nc(CN3CCC(Oc4cccc(Cc5ccc(C(F)(F)F)cc5)n4)CC3)n(C[C@@H]3CCO3)c2n1 [Compound 145a, 3-{[(2S)-oxetan-2-yl]methyl}-2-({4-[(6-{[4-(trifluoromethyl)phenyl]methyl}pyridin-2-yl)oxy]piperidin-1-yl}methyl)-3H-imidazo[4,5-b]pyridine-5-carboxylic acid]",3.4
10,"Cc1cn(Cc2ccc(Cl)cc2F)nc1OC1CCN(Cc2nc3ccc(C(=O)O)nc3n2C[C@@H]2CCO2)CC1 [Compound 133a, 2-{[4-({1-[(4-chloro-2-fluorophenyl)methyl]-4-methyl-1H-pyrazol-3-yl}oxy)piperidin-1-yl]methyl}-3-{[(2S)-oxetan-2-yl]methyl}-3H-imidazo[4,5-b]pyridine-5-carboxylic acid]",2.4
11,"O=C(O)c1ccc2nc(C[C@H]3CC[C@H](Oc4ccnc(Cc5ccc(Cl)cc5F)n4)CC3)n(C[C@@H]3CCO3)c2n1 [Compound 175b, 3-{[(2S)-oxetan-2-yl]methyl}-2-{[trans-4-({2-[(4-chloro-2-fluorophenyl)methyl]pyrimidin-4-yl}oxy)cyclohexyl]methyl}-3H-imidazo[4,5-b]pyridine-5-carboxylic acid]",0.063
12,"O=C(O)c1ccc2nc(CN3CCC(c4cccc5cn(Cc6ccc(Cl)cc6F)nc45)CC3)n(C[C@@H]3CCO3)c2n1 [Compound 142a, (S)-2-((4-(2-(4-chloro-2-fluorobenzyl)-2H-indazol-7-yl)piperidin-1-yl)methyl)-3-(oxetan-2-ylmethyl)-3H-imidazo[4,5-b]pyridine-5-carboxylic acid]",1.7
13,"O=C(O)c1ccc2nc(CN3CCC(Oc4cccc(C(F)(F)c5ccc(Cl)cc5F)n4)CC3)n(C[C@@H]3CCO3)c2n1 [Compound 129a, 2-{[4-({6-[(4-chloro-2-fluorophenyl)difluoromethyl]pyridin-2-yl}oxy)piperidin-1-yl]methyl}-3-{[(2S)-oxetan-2-yl]methyl}-3H-imidazo[4,5-b]pyridine-5-carboxylic acid]",0.91
14,"O=C(O)c1ccc2nc(CN3CCC(Oc4ccnc(Cc5ccc(C(F)(F)F)cc5F)n4)CC3)n(C[C@@H]3CCO3)c2n1 [Compound 163a, 2-({4-[(2-{[2-fluoro-4-(trifluoromethyl)phenyl]methyl}pyrimidin-4-yl)oxy]piperidin-1-yl}methyl)-3-{[(2S)-oxetan-2-yl]methyl}-3H-imidazo[4,5-b]pyridine-5-carboxylic acid]",0.11

# The remaining compounds from weak to strong by EC50, led by results:
row,EC50 [nM],Compound
1,68,"O=C(O)c1ccc2nc(CN3CCC(Oc4ccc(F)c(Cc5ccc(Cl)cc5F)n4)CC3)n(C[C@@H]3CCO3)c2n1 [Compound 150a, (S)-2-((4-((6-(4-chloro-2-fluorobenzyl)-5-fluoropyridin-2-yl)oxy)piperidin-1-yl)methyl)-3-(oxetan-2-ylmethyl)-3H-imidazo[4,5-b]pyridine-5-carboxylic acid]"
2,53,"O=C(O)c1ccc2nc(CN3CCC(Oc4cccc(Cc5ccc(Cl)cc5F)n4)C3)n(C[C@@H]3CCO3)c2n1 (stereo partly drawn) [Compound 130a, 2-{[3-({6-[(4-chloro-2-fluorophenyl)methyl]pyridin-2-yl}oxy)pyrrolidin-1-yl]methyl}-3-{[(2S)-oxetan-2-yl]methyl}-3H-imidazo[4,5-b]pyridine-5-carboxylic acid]"
3,4.4,"O=C(O)c1ccc2nc(CN3CCC(Oc4cccc(CN5Cc6ccccc6C5=O)n4)CC3)n(C[C@@H]3CCO3)c2n1 [Compound 148a, 3-{[(2S)-oxetan-2-yl]methyl}-2-{[4-({6-[(1-oxo-2,3-dihydro-1H-isoindol-2-yl)methyl]pyridin-2-yl}oxy)piperidin-1-yl]methyl}-3H-imidazo[4,5-b]pyridine-5-carboxylic acid]"
4,3.8,"O=C(O)c1ccc2nc(CN3CCC(Oc4cc(Cl)cc(Cc5ccc(Cl)cc5)n4)CC3)n(C[C@@H]3CCO3)c2n1 [Compound 155a, 2-{[4-({4-chloro-6-[(4-chlorophenyl)methyl]pyridin-2-yl}oxy)piperidin-1-yl]methyl}-3-{[(2S)-oxetan-2-yl]methyl}-3H-imidazo[4,5-b]pyridine-5-carboxylic acid]"
5,1.2,"O=C(O)c1ccc2nc(CN3CCC(n4ccc5ccc(Cc6ccc(Cl)cc6F)nc54)CC3)n(C[C@@H]3CCO3)c2n1 [Compound 140a, 2-[(4-{6-[(4-chloro-2-fluorophenyl)methyl]-1H-pyrrolo[2,3-b]pyridin-1-yl}piperidin-1-yl)methyl]-3-{[(2S)-oxetan-2-yl]methyl}-3H-imidazo[4,5-b]pyridine-5-carboxylic acid]"
6,1,"O=C(O)c1ccc2nc(CN3CCC(Oc4cccc(Cc5ccccc5Cl)n4)CC3)n(C[C@@H]3CCO3)c2n1 [Compound 126a, (S)-2-((4-((6-(2-chlorobenzyl)pyridin-2-yl)oxy)piperidin-1-yl)methyl)-3-(oxetan-2-ylmethyl)-3H-imidazo[4,5-b]pyridine-5-carboxylic acid]"
7,0.13,"O=C(O)c1ccc2nc(CN3CCC(Oc4ccnc(Cc5ccc(Cl)c(Cl)c5)n4)CC3)n(C[C@@H]3CCO3)c2n1 [Compound 167a, 2-{[4-({2-[(3,4-dichlorophenyl)methyl]pyrimidin-4-yl}oxy)piperidin-1-yl]methyl}-3-{[(2S)-oxetan-2-yl]methyl}-3H-imidazo[4,5-b]pyridine-5-carboxylic acid]"
8,0.12,"O=C(O)c1ccc2nc(CN3CCC(Oc4ccnc(Cc5ccc(Cl)cc5F)n4)CC3)n(C[C@@H]3CCO3)c2c1 [Compound 160a, 2-{[4-({2-[(4-chloro-2-fluorophenyl)methyl]pyrimidin-4-yl}oxy)piperidin-1-yl]methyl}-1-{[(2S)-oxetan-2-yl]methyl}-1H-1,3-benzodiazole-6-carboxylic acid]"
9,0.07,"N#Cc1ccc(Cc2nccc(O[C@H]3CC[C@H](Cc4nc5ccc(C(=O)O)nc5n4C[C@@H]4CCO4)CC3)n2)cc1 [Compound 182a, 3-{[(2S)-oxetan-2-yl]methyl}-2-{[trans-4-({2-[(4-cyanophenyl)methyl]pyrimidin-4-yl}oxy)cyclohexyl]methyl}-3H-imidazo[4,5-b]pyridine-5-carboxylic acid]"

# Same assay, conditions: HEK293/CRE-Luc cell line stably expressing the GLP-1 Receptor; 30 min incubation at 37° C.; read-out: GLP1R cAMP Stimulation DR: pEC50 (converted)
row,Compound,EC50 [nM]
1,"O=C(O)c1ccc2nc(CN3CCC(Oc4cccc(C(F)(F)c5ccc(Cl)cc5F)n4)CC3)n(C[C@@H]3CCO3)c2n1 [Compound 129a, 2-{[4-({6-[(4-chloro-2-fluorophenyl)difluoromethyl]pyridin-2-yl}oxy)piperidin-1-yl]methyl}-3-{[(2S)-oxetan-2-yl]methyl}-3H-imidazo[4,5-b]pyridine-5-carboxylic acid]",1
2,"O=C(O)c1ccc2nc(CN3CCC(Oc4ccnc(Cc5ccc(C(F)(F)F)cc5F)n4)CC3)n(C[C@@H]3CCO3)c2n1 [Compound 163a, 2-({4-[(2-{[2-fluoro-4-(trifluoromethyl)phenyl]methyl}pyrimidin-4-yl)oxy]piperidin-1-yl}methyl)-3-{[(2S)-oxetan-2-yl]methyl}-3H-imidazo[4,5-b]pyridine-5-carboxylic acid]",0.1
